Assay results reported in BindingDB's records for patent US20250313563 (The Broad Institute, 2025).
Where “and” joins values, the source holds several entries; their conditions need not be identical. Equal values may be shown once.

Assays:
[1] = target: Glycogen synthase kinase-3 alpha (Homo sapiens, UniProt P49840); assay: TR-FRET Assay
Procedure: (§1) The assay was performed in a white, 384 well, low volume, flat bottom plate (Grenier). […] The kinase activity was quenched with 2 μL of 250 mM EDTA. A 10 μL volume of 40 nM Strepavidin-d2, 2 nM Tb2+-pSer641 antibody in TR-FRET Detection Buffer (Invitrogen) was then added.

[2] = target: Glycogen synthase kinase-3 beta (Homo sapiens, UniProt P49841); assay: TR-FRET Assay
Chain of Glycogen synthase kinase-3 beta (P49841 whole entry): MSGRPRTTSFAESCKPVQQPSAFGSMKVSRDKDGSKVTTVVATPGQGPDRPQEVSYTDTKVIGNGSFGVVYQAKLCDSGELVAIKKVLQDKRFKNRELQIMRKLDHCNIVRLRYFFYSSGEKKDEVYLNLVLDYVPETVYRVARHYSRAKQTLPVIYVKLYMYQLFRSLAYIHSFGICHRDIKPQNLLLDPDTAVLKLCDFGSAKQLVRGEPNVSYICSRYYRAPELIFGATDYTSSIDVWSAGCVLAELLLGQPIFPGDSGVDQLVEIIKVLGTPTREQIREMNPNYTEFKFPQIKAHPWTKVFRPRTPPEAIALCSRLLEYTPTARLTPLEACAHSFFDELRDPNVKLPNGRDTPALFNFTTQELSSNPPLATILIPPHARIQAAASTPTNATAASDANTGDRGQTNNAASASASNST
Procedure: as §1

Chain of Glycogen synthase kinase-3 alpha (P49840 whole entry): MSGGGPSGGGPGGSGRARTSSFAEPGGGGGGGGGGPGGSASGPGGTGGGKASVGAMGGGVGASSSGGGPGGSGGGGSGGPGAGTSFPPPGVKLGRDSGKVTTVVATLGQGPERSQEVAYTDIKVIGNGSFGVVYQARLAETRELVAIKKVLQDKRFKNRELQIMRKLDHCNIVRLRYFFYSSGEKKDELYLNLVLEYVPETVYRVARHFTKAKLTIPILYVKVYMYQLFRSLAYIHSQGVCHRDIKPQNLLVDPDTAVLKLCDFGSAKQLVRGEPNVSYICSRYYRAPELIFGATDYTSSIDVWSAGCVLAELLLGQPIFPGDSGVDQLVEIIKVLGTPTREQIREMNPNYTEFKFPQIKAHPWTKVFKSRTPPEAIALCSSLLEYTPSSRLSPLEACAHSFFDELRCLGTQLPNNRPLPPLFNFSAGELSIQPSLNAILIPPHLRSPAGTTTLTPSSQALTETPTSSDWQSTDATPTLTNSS

| IC50 [1] | IC50 [2] | Compound |
| --- | --- | --- |
| < 100 nM | < 100 nM | CC1(C)CC(=O)C2=C(C1)NC1N=NC=C1[C@]21CCCc2c(-c3ccncc3)cccc21 (some centres undefined) [US20250313563, Compound 945548] |
| < 100 nM | 100 to 1000 nM | CCc1cc(N(C)c2cccc(C3(CC)C4=CN=NC4NC4=C3C(=O)CC(C)(C)C4)c2)ccn1 (centres undefined) [US20250313563, Compound 917147] |
| > 5000 nM | > 5000 nM | CC[C@]1(c2cccc(-c3cnn(C)c3)c2)C2=C(CC(C)(C)NC2=O)NC2N=NC(C)=C21 (some centres undefined) [US20250313563, Compound 945611] |
| 100 to 1000 nM | 100 to 1000 nM | CC[C@@]1(c2cccc(-c3ccncc3F)c2)C2=C(CC(C)(C)CC2=O)NC2N=NC(C)=C21 (some centres undefined) [US20250313563, Compound 913017] |
| 100 to 1000 nM | 100 to 1000 nM | O=C1C[C@]2(CCOC2)CC2=C1C1(CCOCC1)C1=C(N=NC1)N2 [US20250313563, Compound 901476] |
| < 100 nM | < 100 nM | CC[C@]1(c2cccc(-c3ccncc3C)c2)C2=C(CC(C)(C)CC2=O)NC2N=NC(C(F)(F)F)=C21 (some centres undefined) [US20250313563, Compound 947324] |
| 100 to 1000 nM | 1000 to 5000 nM | CC[C@@]1(c2cccc(OC)c2)C2=C(CC(C)(C)NC2=O)NC2N=NC(C)=C21 (some centres undefined) [US20250313563, Compound 949337] |
| 100 to 1000 nM | 100 to 1000 nM | CC[C@]1(c2cccc(-c3ccnc(C)c3C)c2)C2=C(CC(C)(C)CC2=O)NC2N=NC(C(F)(F)F)=C21 (some centres undefined) [US20250313563, Compound 947328] |
| < 100 nM | 100 to 1000 nM | Cc1cccc(C2(C)C3=C(N=NC3)NC3=C2C(=O)CC(C)(C)C3)c1 (centres undefined) [US20250313563, Compound 785736] |
| < 100 nM | < 100 nM and 100 to 1000 nM | CCn1nccc1-c1cccc([C@]2(CC)C3=CN=NC3NC3=C2C(=O)CC(C)(C)C3)c1 (some centres undefined) [US20250313563, Compound 946089] |
| < 100 nM and 100 to 1000 nM | < 100 nM and 1000 to 5000 nM | CC[C@]1(c2cccc(C(F)(F)F)c2)C2=CN=NC2NC2=C1C(=O)NC1(CCC1)C2 (some centres undefined) [US20250313563, Compound 914308] |
| 100 to 1000 nM | 100 to 1000 nM | CC1(C)CC(=O)C2=C(C1)NC1N=NC=C1[C@]21CCCN(S(=O)(=O)Cc2ccccc2)CC1 (some centres undefined) [US20250313563, Compound 945483] |
| > 5000 nM | > 5000 nM | CC[C@]1(c2cccc(Br)c2)C2=CN=NC2NC2=C1C(=O)C[C@@H](C)C2 (some centres undefined) [US20250313563, Compound 810484] |
| < 100 nM | < 100 nM | CCC1(c2cccc(C(F)(F)F)c2)C2=CN=NC2NC2=C1C(=O)NC1(CCC1)C2 (centres undefined) [US20250313563, Compound 902202] |
| 1000 to 5000 nM | > 5000 nM | CC[C@]1(c2cccc(-c3ccncc3C)c2)C2=CN=NC2NC2=C1C(=O)N[C@@]1(CCOC1)C2 (some centres undefined) [US20250313563, Compound 948662] |
| 100 to 1000 nM | 100 to 1000 nM | CCC1(c2ccccc2)C2=C(N=NC2)NC2=C1C(=O)CC1(CCC1)C2 (centres undefined) [US20250313563, Compound 811555] |
| > 5000 nM | > 5000 nM | CC[C@@]1(c2cccc(C(F)(F)F)c2)C2=C(CC(C)(C)NC2=O)NC2N=NC(F)=C21 (some centres undefined) [US20250313563, Compound 957497] |
| 1000 to 5000 nM | > 5000 nM | CCC1(c2cccc(N(C)c3cc(C)nc(C)c3)c2)C2=CN=NC2NC2=C1C(=O)CC(C)(C)C2 (centres undefined) [US20250313563, Compound 913256] |
| < 100 nM | < 100 nM | CC[C@@]1(c2cccc(N(C)C(=O)c3cnn(C)c3)c2)C2=CN=NC2NC2=C1C(=O)CC(C)(C)C2 (some centres undefined) [US20250313563, Compound 913310] |
| < 100 nM | < 100 nM | CC1(C)CC(=O)C2=C(C1)NC1=C(CN=N1)C21COC2(CN(C(=O)C3(F)CC3)C2)C1 (centres undefined) [US20250313563, Compound 947487] |
| < 100 nM | < 100 nM | CCC1(c2cccc(S(=O)(=O)C3CCOC3)c2)C2=CN=NC2NC2=C1C(=O)CC(C)(C)C2 (centres undefined) [US20250313563, Compound 944018] |
| < 100 nM | < 100 nM and 100 to 1000 nM | CC[C@]1(c2cccc(-c3cn(C)nc3C)c2)C2=C(CC(C)(C)CC2=O)NC2N=NC(C)=C21 (some centres undefined) [US20250313563, Compound 913035] |
| 100 to 1000 nM | 100 to 1000 nM | CC[C@]1(c2cccc(N3CCCCC3)c2)C2=C(CC(C)(C)CC2=O)NC2N=NC(C)=C21 (some centres undefined) [US20250313563, Compound 884115] |
| < 100 nM | < 100 nM | CC1(C)CC(=O)C2=C(C1)NC1=C(CN=N1)C21COC2(CN(C(=O)c3ccccc3)C2)C1 (centres undefined) [US20250313563, Compound 917231] |
| > 5000 nM | > 5000 nM | CC[C@@]1(c2cccc(C3CC3)c2)C2=CN=NC2NC2=C1C(=O)NC(C)(C)C2 (some centres undefined) [US20250313563, Compound 950817] |
| < 100 nM and 100 to 1000 nM | < 100 nM and 100 to 1000 nM | CC(C)S(=O)(=O)N1CCC2(CC1)C1=C(N=NC1)NC1=C2C(=O)CC(C)(C)[C@@H]1F [US20250313563, Compound 951714] |

| IC50 [1] | IC50 [2] | Compound |
| --- | --- | --- |
| < 100 nM | < 100 nM | CC[C@]1(c2cccc(-c3ccncc3C)c2)C2=CN=NC2NC2=C1C(=O)N[C@]1(CCCOC1)C2 (some centres undefined) [US20250313563, Compound 947911] |
| < 100 nM | < 100 nM | CC1(C)CC(=O)C2=C(C1)NC1N=NC(C(F)(F)F)=C1[C@]21CCc2c(F)cccc21 (some centres undefined) [US20250313563, Compound 806569] |
| < 100 nM | < 100 nM | Cc1nc(C)c(S(=O)(=O)N2CCC3(CC2)C2=C(N=NC2)NC2=C3C(=O)CC(C)(C)C2)s1 [US20250313563, Compound 947259] |
| 1000 to 5000 nM | > 5000 nM | CC[C@@]1(c2cccc(N(C)c3ccnc(F)c3)c2)C2=CN=NC2NC2=C1C(=O)CC(C)(C)C2 (some centres undefined) [US20250313563, Compound 929453] |
| 100 to 1000 nM | 1000 to 5000 nM | CC[C@]1(c2cccc(-c3ccnc(C)c3)c2)C2=CN=NC2NC2=C1C(=O)CC(C)(C)[C@H]2F (some centres undefined) [US20250313563, Compound 946103] |
| < 100 nM | 100 to 1000 nM | CCC1(c2cccc(-c3cnn4c3CCCC4)c2)C2=CN=NC2NC2=C1C(=O)NC(C)(C)C2 (centres undefined) [US20250313563, Compound 945603] |
| < 100 nM | < 100 nM | Cc1cnc2c(S(=O)(=O)N3CCC4(CC3)C3=C(N=NC3)NC3=C4C(=O)CC(C)(C)C3)cccc2c1 [US20250313563, Compound 947614] |
| 100 to 1000 nM | 100 to 1000 nM | CC[C@]1(c2cccc(C(C)C)c2)C2=C(CC(C)(C)NC2=O)NC2N=NC(C(F)(F)F)=C21 (some centres undefined) [US20250313563, Compound 950493] |
| < 100 nM | < 100 nM | CC1(C)CC(=O)C2=C(C1)NC1=C(CN=N1)[C@@]21COC2(CN(C(=O)C3CCCC3)C2)C1 [US20250313563, Compound 943957] |
| < 100 nM | < 100 nM | CC1(C)CC(=O)C2=C(C1)NC1=C(CN=N1)C21CN(S(=O)(=O)c2cccc(F)c2)C1 [US20250313563, Compound 918278] |
| 100 to 1000 nM | 1000 to 5000 nM | CC1(C)CC(=O)C2=C(C1)NC1=C(CN=N1)[C@]21COC2(CN(C(=O)c3ccccc3)C2)C1 [US20250313563, Compound 943956] |
| > 5000 nM | > 5000 nM | CC1(C)CC(=O)C2=C(C1)NC1=C(CN=N1)C21CN(CC2CCCC2)C1 [US20250313563, Compound 943914] |
| 100 to 1000 nM | < 100 nM | CC(C)(C)CC1=C2C(N=N1)NC1=C(C(=O)CC(C)(C)C1)[C@@]21CCc2ccc(F)cc21 (some centres undefined) [US20250313563, Compound 789505] |
| < 100 nM | 100 to 1000 nM | CC[C@@]1(c2cccc(C3=CNN4CC=CN=C34)c2)C2=CN=NC2NC2=C1C(=O)NC(C)(C)C2 (some centres undefined) [US20250313563, Compound 950830] |
| < 100 nM | 100 to 1000 nM | CCc1cnccc1-c1cccc([C@@]2(CC)C3=CN=NC3NC3=C2C(=O)NC(C)(C)C3)c1 (some centres undefined) [US20250313563, Compound 948639] |
| < 100 nM | 100 to 1000 nM | CC[C@@]1(c2cccc(-c3ccnn3C)c2)C2=CN=NC2NC2=C1C(=O)NC1(CCS(=O)(=O)CC1)C2 (some centres undefined) [US20250313563, Compound 949394] |
| < 100 nM | 100 to 1000 nM | CC[C@@]1(c2cccc(-c3cnn(Cc4cccc(C(F)(F)F)c4)c3)c2)C2=CN=NC2NC2=C1C(=O)NC(C)(C)C2 (some centres undefined) [US20250313563, Compound 951848] |
| < 100 nM and 100 to 1000 nM | < 100 nM and 1000 to 5000 nM | CC[C@@]1(c2cccc([C@H](C)c3ncccn3)c2)C2=CN=NC2NC2=C1C(=O)CC(C)(C)C2 (some centres undefined) [US20250313563, Compound 948060] |
| < 100 nM | 1000 to 5000 nM | CCC1(c2cccc(-c3ccnc(C)c3)c2)C2=C(CC(C)(C)NC2=O)NC2N=NC(F)=C21 (centres undefined) [US20250313563, Compound 948299] |
| < 100 nM | 100 to 1000 nM | CO[C@H]1CC[C@@]2(CC1)C1=C(N=NC1)NC1=C2C(=O)CC(C)(C)C1 [US20250313563, Compound 884119] |
| > 5000 nM | > 5000 nM | CC[C@@]1(c2cccc(C(F)(F)F)c2)C2=CN=NC2NC2=C1C(=O)N(C)CC2 (some centres undefined) [US20250313563, Compound 917283] |
| 1000 to 5000 nM | 1000 to 5000 nM | C[C@H]1CCC[C@]12C1=CN=NC1NC1=C2C(=O)CC(C)(C)C1 (some centres undefined) [US20250313563, Compound 874320] |
| < 100 nM | < 100 nM | CCC1(c2cccc(S(=O)(=O)CC3CC3)c2)C2=C(CC(C)(C)NC2=O)NC2N=NC(C)=C21 (centres undefined) [US20250313563, Compound 948178] |
| > 5000 nM | > 5000 nM | Cn1cc(CN2CC3(C2)C2=C(N=NC2)NC2=C3C(=O)CC(C)(C)C2)cn1 [US20250313563, Compound 929439] |
| > 5000 nM | > 5000 nM | CC[C@@]1(c2ccccc2)C2=CN=NC2NC2=C1C(=O)[C@H](F)C(C)(C)C2 (some centres undefined) [US20250313563, Compound 957404] |
| 100 to 1000 nM | 100 to 1000 nM | CC[C@@]1(c2cccc(Cl)c2)C2=C(CC(C)(C)CC2=O)NC2N=NC(Br)=C21 (some centres undefined) [US20250313563, Compound 801315] |
